Key:
Assay type in all cases: cell-based
AR [1] = test: 22Rv1-ARE-luc androgen-response element luciferase reporter assay; details: 24 hours
Protocol: VCaP and CWR22Rv1 (referred to as 22Rv1) cells were transduced with ARE-luciferase Cignal Lenti Pathway Reporter (Qiagen; Valencia, Calif.) and cultured as described above in the presence of 1 μg/mL puromycin. Following antibiotic selection, cells stably expressing ARE-luciferase were isolated, cloned and cultured to generate a stable ARE-reporter cell lines.

[2] = MTT cell viability assay, PrEC cells; details: human, non-tumorigenic primary prostate epithelial cells (PrEC), similar range of doses, read-out: cell viability retained
Protocol: Cells were treated in the manner indicated below for the specified period of time. MTT assay was performed as described in Amin et al., Mol. Cancer Ther., 13:341-52 (2014).
(§1) To determine the effects of SH-I-125 on prostate cancer cell growth, 22Rv1 cells were treated with SH-I-125 and cell viability was measured after a period of 3 days. […]. In comparison, non-tumorigenic primary prostate epithelial cells (PrEC) retained 80% viability in the presence of a similar range of doses of SH-I-125, showing that tumorigenic cells are more susceptible to the growth inhibitory properties of SH-I-125 compared to non-tumorigenic cells (FIG. 8B). […] Staurosporine was used as a positive control for cell death induction in live and dead assays (FIG. 9C).

hTERT promoter = test: hTERT promoter-luciferase reporter in 22Rv1 cells; details: 2.5 μM, 24 hours
Protocol: 22Rv1 cells were transfected with hTERT promoter-luciferase reporter construct and Renilla luciferase plasmids (pRL-TK-Luc) and treated with 2.5 μM of SH-I-125 for 24 hours. Promoter activity was determined after normalization with Renilla luciferase activity. Columns, mean of three independent experiments with quadruplicate samples; bars, SEM.

AR [3] = target: T1, AR (Homo sapiens, UniProt P10275); test: Immunofluorescence staining and Western blot of AR and PSA in VCaP cells; details: DHT 1 nM, MDV3100 10 μM or SH-I-125 1 μM, 24 hours
T1 construct: Androgen-dependent VCaP cells were made to stably express an androgen-response element luciferase reporter (VCaP-ARE-luc); host or cells: VCaP / VCaP-ARE-luc
T1 sequence (P10275 1-920): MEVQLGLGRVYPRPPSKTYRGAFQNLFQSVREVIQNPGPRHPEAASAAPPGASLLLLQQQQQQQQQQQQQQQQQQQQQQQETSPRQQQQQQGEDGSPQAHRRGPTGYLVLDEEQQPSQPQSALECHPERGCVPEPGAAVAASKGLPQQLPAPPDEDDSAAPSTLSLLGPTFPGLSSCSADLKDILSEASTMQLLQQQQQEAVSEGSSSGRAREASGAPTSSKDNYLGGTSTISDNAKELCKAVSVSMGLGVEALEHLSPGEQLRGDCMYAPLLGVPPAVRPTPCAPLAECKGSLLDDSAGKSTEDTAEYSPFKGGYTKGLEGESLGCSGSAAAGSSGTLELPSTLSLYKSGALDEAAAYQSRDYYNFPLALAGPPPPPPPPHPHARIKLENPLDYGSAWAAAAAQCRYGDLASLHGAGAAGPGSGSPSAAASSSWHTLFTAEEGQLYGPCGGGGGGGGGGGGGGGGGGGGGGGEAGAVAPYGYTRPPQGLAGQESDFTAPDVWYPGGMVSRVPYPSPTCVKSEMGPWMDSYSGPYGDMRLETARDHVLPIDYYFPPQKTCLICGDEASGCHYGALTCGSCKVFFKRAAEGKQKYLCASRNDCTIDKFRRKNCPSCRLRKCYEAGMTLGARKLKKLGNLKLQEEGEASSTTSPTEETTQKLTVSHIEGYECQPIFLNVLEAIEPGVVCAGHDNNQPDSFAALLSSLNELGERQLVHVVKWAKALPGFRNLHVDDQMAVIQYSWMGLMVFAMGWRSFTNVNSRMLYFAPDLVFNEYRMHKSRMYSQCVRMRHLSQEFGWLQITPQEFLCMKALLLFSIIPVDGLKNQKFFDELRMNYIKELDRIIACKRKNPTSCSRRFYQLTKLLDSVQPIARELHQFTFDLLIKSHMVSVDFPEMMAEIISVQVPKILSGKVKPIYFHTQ
Protocol: Androgen receptor (AR) and PSA expression levels were assessed.
AR and PSA expression levels were assessed. B-actin was used as a loading control.

PrEC = test: Live and dead cell staining, PrEC cells; details: SH-I-125 5 μM, 3 days
Protocol: Live and dead cells were determined using a Cell Viability/Cytotoxicity Assay kit (Biotium Inc.; Hayward, Calif.).
as §1

22Rv1 cells = test: Caspase-Glo 3/7 activity assay, 22Rv1 cells
Protocol: 22Rv1 cells were treated with SH-I-125 (1 μM) for one, two, or three days, and caspase 3/7 activity was measured using Caspase-Glo 3/7 substrates. […] Data represent mean of three independent experiments with quadruplicate samples; bars, SEM. ***, p value <0.001 determined by ANOVA.
Caspase 3/7 activity was measured using Caspase-Glo 3/7 substrates. Data represent mean of three independent experiments with quadruplicate samples; bars, SEM. ***, p value <0.001 determined by ANOVA.
[…]; Madison, Wis.).
. […] Staurosporine was used as a positive control for apoptosis induction (FIG. 10B).

22Rv1-MDVR cells = test: Cell viability (MTT), 22Rv1-MDVR cells; details: MDV3100, ARN-509 10 μM, SH-I-125 range, 3 days
Protocol: Cell viability was measured using the MTT assay.

AR [4] = test: VCaP-MDVR-ARE-luc luciferase reporter assay; details: VCaP-MDVR-ARE-luc cells, range of doses, 24 hours
Protocol: […]. Luciferase activity was measured and plotted as a percentage of control. Data represent the mean of three independent experiments with quadruplicate samples; bars, SEM. ***, p value <0.001 determined by ANOVA.
VCaP-MDVR and 22Rv1-MDVR stably expressing ARE-luciferase construct (VCaP-MDVR-ARE-luc and 22Rv1-MDVR-ARE-luc) were generated as described above in the Materials and Methods section. […].

For COc1ccc2c(c1)[nH]c1c(C)c(OS(=O)(=O)c3cccc4ccccc34)ccc12 [SH-I-125, 7-methoxy-1-methyl-9H-carbazol-2-yl naphthalene-1-sulfonate], the “potency relative to mahanine on AR signaling (ARE-luc)” value (AR [1]) was “more potent than mahanine”, the ARE-luciferase activity (AR [1]; range of doses) was “almost completely abolishing ARE-luciferase activity” and the viability at 3 days [2] was 80%. For the same compound, the hTERT promoter-luciferase activity (hTERT promoter) was “unaffected”, the AR nuclear localization (AR [3]) was “blocked AR nuclear localization” and the PSA expression (AR [3]) was “inhibited PSA expression”. The “live and dead cell staining” value (PrEC) was “mostly unaffected”, the “caspase 3/7 activity” value (22Rv1 cells; 3 days) was “induced caspase activity” and the “caspase-3 and -7 activities, time-course” value (22Rv1 cells; SH-I-125 1 μM, after three days treatment) was “significantly induced”. The “cell growth / viability” value (22Rv1-MDVR cells) was “effective in preventing the growth” and the “inhibitory effect on AR activity (luciferase)” value (AR [4]) was “retained its inhibitory effect”.

Source: patent US10487056B2, “Small molecule androgen receptor inhibitors and methods of use thereof” (GEORGETOWN UNIVERSITY, priority 2015, dated 2019)
